Values joined by “and” are separate entries in the source; they are usually repeats but may differ in a detail not shown here. Equal values may be shown once. Read-outs that look alike come from different tables or passages of the source.
How the values were obtained:
[1] = system: HEK293T cells; assay: Cytotoxicity: necrosis induction (red fluorescent dye for permeable plasma membranes); type: cell-based; details: 1 µM, 24 h, necrotic cell count normalized to 0.1% DMSO, single replicates;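 further: compounds applied in DMEM high glucose with 0.1% FCS and 0.1% DMSO, necrotic HEK293T cells counted by red staining of cells whose plasma membranes had become permeable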
[2] = target: T1, ABL1 (Homo sapiens, UniProt P00519); assay: Liability panel screening by DSF: ABL1; type: binding; details: read-out: Mean ΔTM ABL1
T1 construct: made in house
In short: (§1)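 ∆Tm in K was taken from Boltzmann-fitted unfolding inflection points, run in duplicate with a temperature ramp of 3 °C per minute up to 85 °C. Each recombinant protein (2 µM) was in HEPES 10 mM pH 7.5 and NaCl 500 mM, with SYPRO Orange dye at 1:1000.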

[3] = target: T2, AURKA (Homo sapiens, UniProt O14965); assay: Liability panel screening by DSF: AURKA; type: binding; details: read-out: Mean ΔTM AURKA
T2 construct: made in house
T2 sequence (O14965 1-403): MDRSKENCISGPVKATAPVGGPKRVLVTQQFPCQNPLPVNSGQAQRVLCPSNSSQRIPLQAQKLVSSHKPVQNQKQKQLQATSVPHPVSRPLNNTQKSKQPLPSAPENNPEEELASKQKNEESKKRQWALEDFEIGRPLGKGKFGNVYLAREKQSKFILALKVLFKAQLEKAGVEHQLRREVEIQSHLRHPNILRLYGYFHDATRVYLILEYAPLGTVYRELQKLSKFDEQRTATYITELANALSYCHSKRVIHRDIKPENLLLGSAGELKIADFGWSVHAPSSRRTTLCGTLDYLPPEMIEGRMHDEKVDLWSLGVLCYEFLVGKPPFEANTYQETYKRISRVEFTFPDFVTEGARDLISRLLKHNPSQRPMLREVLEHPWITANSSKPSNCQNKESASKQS
In short: as §1

[4] = target: T3, CDK2 (Homo sapiens, UniProt P24941); assay: Liability panel screening by DSF: CDK2; type: binding; details: read-out: Mean ΔTM CDK2
T3 construct: made in house
In short: as §1

[5] = target: T4, FGFR3 (Homo sapiens, UniProt P22607); assay: Liability panel screening by DSF: FGFR3; type: binding; details: read-out: Mean ΔTM FGFR3
T4 construct: made in house
In short: as §1

[6] = target: T5, GSK3B (Homo sapiens, UniProt P49841); assay: Liability panel screening by DSF: GSK3B; type: binding; details: read-out: Mean ΔTM GSK3B
T5 construct: made in house

[7] = target: T6, BRD4 (Homo sapiens, UniProt O60885); assay: Liability panel screening by DSF: BRD4; type: binding; details: read-out: Mean ΔTM BRD4
T6 construct: This panel comprised ten highly ligandable kinases and bromodomains; made in house
In short: as §1

[8] = target: T7, BRPF1 (Homo sapiens, UniProt P55201); assay: Liability panel screening by DSF: BRPF1; type: binding; details: read-out: Mean ΔTM BRPF1
T7 construct: This panel comprised ten highly ligandable kinases and bromodomains; made in house
T7 sequence (P55201 628-732 limits assumed): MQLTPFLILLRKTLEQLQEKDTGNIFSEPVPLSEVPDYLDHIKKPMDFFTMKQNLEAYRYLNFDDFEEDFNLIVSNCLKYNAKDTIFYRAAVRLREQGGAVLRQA
In short: as §1

[9] = target: T8, CSNK1D (Homo sapiens, UniProt P48730); assay: Liability panel screening by DSF: CSNK1D; type: binding; details: read-out: Mean ΔTM CSNK1D
T8 construct: made in house
In short: as §1

[10] = target: T9, MAPK1 (Homo sapiens, UniProt P28482); assay: Liability panel screening by DSF: MAPK1; type: binding; details: read-out: Mean ΔTM MAPK1
T9 construct: made in house
In short: as §1

[11] = target: T10, TRIM24 (Homo sapiens, UniProt O15164); assay: Liability panel screening by DSF: TRIM24; type: binding; details: read-out: Mean ΔTM TRIM24
T10 construct: This panel comprised ten highly ligandable kinases and bromodomains; made in house
T10 sequence (O15164 899-1004 limits assumed): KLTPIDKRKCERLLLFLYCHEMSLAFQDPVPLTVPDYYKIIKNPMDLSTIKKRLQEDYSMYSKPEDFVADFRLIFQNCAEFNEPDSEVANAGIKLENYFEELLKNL
In short: as §1

[12] = system: NF-κB activity in HEK293 NF-κB reporter cells; assay: NF-kB activity assay (GFP reporter, ionomycin/PMA); type: cell-based; details: for Mean NFκB response: n=3; for NF-κB activity (inflammatory response to ionomycin/PMA): HEK293 NF-κB reporter cells, compounds at recommended concentrations, imaged over 24 h, n = 3
In short: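 Reporter readout: GFP-expressing cells normalized to confluence, imaged every 90 min across 24 h after ionomycin (100 ng/mL)/PMA (10 ng/mL) stimulation of HEK293 cells pre-treated 4 h with compound (0.1% DMSO); triplicate independent experiments.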

[13] = system: ATF6 activity in Hela ATF6 reporter cells; assay: Endoplasmic reticulum stress assay (ATF6 Renilla luciferase reporter, tunicamycin); type: cell-based; details: for ATF6 activity (tunicamycin-induced endoplasmic reticulum stress): Hela ATF6 reporter cells, tunicamycin 100 ng/mL, 18 h, compounds at recommended concentrations, n = 5; for activity at 1 µM: Homo sapiens, HeLa, single replicates n=1 to n=5, read-out: ER stress [rel. ATF6 activity]
In short: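 ER stress was induced by 100 ng/mL tunicamycin added 4 h after compound (0.1% DMSO) to HeLa ATF6 reporter cells. After 18 h more, Renilla luciferase signal was read and expressed relative to DMSO control, n=5 biological replicates.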

[14] = system: NR3A2 (ERβ); details: cited from earlier work
[15] = system: HEK293T cells; assay: Cytotoxicity: metabolic activity (WST-8 / CCK-8 assay); details: 1 µM; HEK293T, 24 h; WST-8; normalized to 0.1% DMSO; single replicates
Procedure: Cells were incubated with the test compounds at the indicated concentrations solubilized with 0.1% DMSO for 24 h. Growth-rate was determined based on the change in confluence over 24 h normalized to the change in confluence of cells treated with the 0.1% DMSO control (n = 10). Metabolic activity was determined with a water-soluble tetrazolium-8 (WST-8) assay (n = 8) after 24 h treatment. Apoptotic cells were detected with a fluorogenic DNA dye coupled to the caspase-3/7 recognition sequence (DEVD) after 24 h treatment and the apoptotic cell count was normalized to 0.1% DMSO treated cells (n = 6).
HEK293T cells (German Collection of Microorganisms and Cell Culture GmbH, DSMZ; #ACC305) were cultured in DMEM high glucose, supplemented with 10% fetal calf serum (FCS), sodium pyruvate (1 mM), penicillin (100 µ/mL) and streptomycin (100 µg/mL) at 37 °C and 5% (v/v) CO2, and seeded in pre-coated (10 µg/mL collagen G solution (Merck KgaA; #L7213) for 30 min at 37 °C) 96-well plates (2 × 10^5 cells per well). After 24 h, the cells were treated with the respective NR3 CG compound candidate at the recommended concentration, bexarotene (100 µM) or doxorubicin (30 µM) as positive controls in DMEM high glucose supplemented with 0.1% FCS, penicillin (100 µ/mL), streptomycin (100 µg/mL) and 0.1% DMSO, or 0.1% DMSO alone as an untreated control. Each sample was prepared in at least four biologically independent replicates. […] Thereafter, the medium was aspirated and the cells were incubated for 3 h with 90 µL DMEM high glucose supplemented with 0.2% FCS, penicillin (100 µ/mL) and streptomycin (100 µg/mL) and additionally containing 10 µL Cell Counting Kit 8 solution (CCK-8; MedChemExpress, Monmouth Junction, New York, USA; #HY-K0301), and absorbance was measured at 1 h, 2 h and 3 h of incubation at 450 nm on a Tecan Spark Cyto to assess metabolic activity of the cells. Before drug administration, after the first medium exchange, 24 h after drug administration, and after fluorescence imaging cell confluence was assessed using the Tecan Spark Cyto, to account for changes in cell confluence due to drug administration and cell handling. Compound effects on cell confluence, apoptosis, metabolic activity and necrosis were normalized to the vehicle control of each biological replicate individually.

[16] = system: HEK293T cells; assay: Cytotoxicity: growth-rate (change in confluence over 24 h); details: 1 µM, normalized to 0.1% DMSO control, single replicates (n=1...)
[17] = system: HEK293T cells; assay: Cytotoxicity: apoptosis induction (caspase-3/7 DEVD fluorogenic DNA dye); details: 1 µM; HEK293T, 24 h; apoptotic cell count normalized to 0.1% DMSO; single replicates
[18] = system: Gal4-VP16; type: cell-based; details: 1 µM; vs. DMSO ctrl; single replicates n=1-3
[19] = system: NR3A1 (ERα); details: cited from earlier work

T1 sequence (P00519 whole entry, species assumed): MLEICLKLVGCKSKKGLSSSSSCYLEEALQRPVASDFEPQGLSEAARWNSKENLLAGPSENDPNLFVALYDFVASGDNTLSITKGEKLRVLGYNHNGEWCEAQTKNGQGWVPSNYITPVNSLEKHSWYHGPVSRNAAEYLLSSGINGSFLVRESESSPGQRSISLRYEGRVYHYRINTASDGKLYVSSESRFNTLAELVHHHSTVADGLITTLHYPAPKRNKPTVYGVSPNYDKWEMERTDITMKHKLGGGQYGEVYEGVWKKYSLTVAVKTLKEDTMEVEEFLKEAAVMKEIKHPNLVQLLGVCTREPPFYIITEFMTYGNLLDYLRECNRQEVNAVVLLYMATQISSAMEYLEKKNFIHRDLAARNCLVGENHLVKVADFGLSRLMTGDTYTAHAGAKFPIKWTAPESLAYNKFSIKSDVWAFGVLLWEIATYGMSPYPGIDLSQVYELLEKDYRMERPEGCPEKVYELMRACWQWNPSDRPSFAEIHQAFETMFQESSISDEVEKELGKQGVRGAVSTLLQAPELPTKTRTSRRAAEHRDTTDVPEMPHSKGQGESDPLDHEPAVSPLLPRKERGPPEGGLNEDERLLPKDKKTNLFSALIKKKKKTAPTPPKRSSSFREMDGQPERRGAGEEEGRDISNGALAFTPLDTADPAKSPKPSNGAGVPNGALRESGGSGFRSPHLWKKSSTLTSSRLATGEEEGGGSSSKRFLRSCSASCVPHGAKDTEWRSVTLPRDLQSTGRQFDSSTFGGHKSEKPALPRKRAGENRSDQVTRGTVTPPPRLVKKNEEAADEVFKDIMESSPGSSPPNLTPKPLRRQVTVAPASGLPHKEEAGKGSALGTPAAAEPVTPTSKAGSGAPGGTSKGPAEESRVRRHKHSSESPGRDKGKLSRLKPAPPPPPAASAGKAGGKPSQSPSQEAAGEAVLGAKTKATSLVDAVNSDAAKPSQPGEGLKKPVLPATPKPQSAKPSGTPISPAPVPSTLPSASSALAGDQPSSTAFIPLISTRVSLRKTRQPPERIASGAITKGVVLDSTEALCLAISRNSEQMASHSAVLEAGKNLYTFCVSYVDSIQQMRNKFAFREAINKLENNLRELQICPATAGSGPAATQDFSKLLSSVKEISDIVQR
T5 sequence (P49841 whole entry, species assumed): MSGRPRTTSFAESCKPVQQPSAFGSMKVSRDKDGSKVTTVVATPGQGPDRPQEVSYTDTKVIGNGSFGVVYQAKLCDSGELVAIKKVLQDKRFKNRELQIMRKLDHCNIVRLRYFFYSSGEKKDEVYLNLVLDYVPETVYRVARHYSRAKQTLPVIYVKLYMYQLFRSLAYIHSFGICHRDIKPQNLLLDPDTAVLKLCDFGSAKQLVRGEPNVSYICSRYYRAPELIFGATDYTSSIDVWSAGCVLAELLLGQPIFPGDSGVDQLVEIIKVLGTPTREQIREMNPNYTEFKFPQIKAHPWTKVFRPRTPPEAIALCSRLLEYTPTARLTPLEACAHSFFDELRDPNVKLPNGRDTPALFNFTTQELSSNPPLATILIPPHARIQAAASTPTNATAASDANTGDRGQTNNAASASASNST
T8 sequence (P48730 whole entry, species assumed): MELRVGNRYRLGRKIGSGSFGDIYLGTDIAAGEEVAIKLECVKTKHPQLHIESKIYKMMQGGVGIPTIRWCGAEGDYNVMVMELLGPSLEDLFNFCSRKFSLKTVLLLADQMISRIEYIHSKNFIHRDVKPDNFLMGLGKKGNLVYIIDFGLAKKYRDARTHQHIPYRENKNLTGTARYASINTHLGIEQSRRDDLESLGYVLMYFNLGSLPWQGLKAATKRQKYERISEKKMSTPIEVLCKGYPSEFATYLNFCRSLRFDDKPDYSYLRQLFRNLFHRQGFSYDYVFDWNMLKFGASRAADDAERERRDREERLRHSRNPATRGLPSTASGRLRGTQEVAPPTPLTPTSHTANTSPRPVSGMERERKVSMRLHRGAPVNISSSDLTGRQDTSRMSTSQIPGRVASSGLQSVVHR
T9 sequence (P28482 whole entry, species assumed): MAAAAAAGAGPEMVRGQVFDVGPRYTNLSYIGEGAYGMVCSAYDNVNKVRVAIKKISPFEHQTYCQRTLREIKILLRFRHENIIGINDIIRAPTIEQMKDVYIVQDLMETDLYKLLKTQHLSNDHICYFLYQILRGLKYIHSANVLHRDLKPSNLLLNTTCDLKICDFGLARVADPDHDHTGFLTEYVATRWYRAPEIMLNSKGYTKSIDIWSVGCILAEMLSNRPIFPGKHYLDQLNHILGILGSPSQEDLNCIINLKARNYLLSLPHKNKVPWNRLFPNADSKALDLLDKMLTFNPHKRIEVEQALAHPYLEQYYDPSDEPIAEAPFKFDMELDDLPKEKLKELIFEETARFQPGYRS
T4 sequence (P22607 23-806, species assumed): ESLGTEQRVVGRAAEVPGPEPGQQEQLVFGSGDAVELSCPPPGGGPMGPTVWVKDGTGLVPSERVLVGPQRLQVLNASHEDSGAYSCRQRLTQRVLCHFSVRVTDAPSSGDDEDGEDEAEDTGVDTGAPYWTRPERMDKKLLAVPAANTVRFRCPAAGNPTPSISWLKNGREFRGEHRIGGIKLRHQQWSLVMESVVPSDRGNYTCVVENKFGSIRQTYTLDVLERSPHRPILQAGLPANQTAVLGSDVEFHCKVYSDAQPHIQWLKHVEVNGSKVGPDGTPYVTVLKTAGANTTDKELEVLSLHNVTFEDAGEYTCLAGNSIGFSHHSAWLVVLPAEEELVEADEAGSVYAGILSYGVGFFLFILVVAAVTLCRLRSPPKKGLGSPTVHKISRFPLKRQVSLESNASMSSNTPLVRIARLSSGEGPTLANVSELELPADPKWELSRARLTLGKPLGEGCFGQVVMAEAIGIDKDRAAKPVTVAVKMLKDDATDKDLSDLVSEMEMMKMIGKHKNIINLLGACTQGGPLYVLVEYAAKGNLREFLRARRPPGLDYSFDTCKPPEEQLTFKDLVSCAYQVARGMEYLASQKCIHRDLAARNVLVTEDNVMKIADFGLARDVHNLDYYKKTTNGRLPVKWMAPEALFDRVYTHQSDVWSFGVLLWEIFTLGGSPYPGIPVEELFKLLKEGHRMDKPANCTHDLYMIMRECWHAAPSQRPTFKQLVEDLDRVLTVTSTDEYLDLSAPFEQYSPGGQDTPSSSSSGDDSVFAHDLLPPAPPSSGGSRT

## CC[C@@H]1Cc2cc(O)ccc2C2=C1c1ccc(O)cc1C[C@H]2CC [(R,R)-THC]
[1]
  Necrosis induction [NI]: 1.00 and 0.96 and 0.79 and 1.43
[2]
  ΔTm at 20 µM: 5.33 °C
[3]
  ΔTm at 20 µM: 1.62 °C
[4]
  ΔTm at 20 µM: 1.76 °C
[5]
  ΔTm at 20 µM: 0.08 °C
[6]
  ΔTm at 20 µM: 1.59 °C
[7]
  ΔTm at 20 µM: -3.36 °C
[8]
  ΔTm at 20 µM: -0.77 °C
[9]
  ΔTm at 20 µM: -0.65 °C
[10]
  ΔTm at 20 µM: 0.61 °C
[11]
  ΔTm at 20 µM: 0.93 °C
[12]; 1 µM, 1,5 h
  Mean NFκB response: 3557.96 GFP+-cells/confluence ∙ 1000
[12]; 1 µM, 4,5 h
  Mean NFκB response: 4261.58 GFP+-cells/confluence ∙ 1000
[12]; 1 µM, 7,5 h
  Mean NFκB response: 9104.56 GFP+-cells/confluence ∙ 1000
[12]; 1 µM, 10,5 h
  Mean NFκB response: 19176.29 GFP+-cells/confluence ∙ 1000
[12]; 1 µM, 13,5 h
  Mean NFκB response: 27638.90 GFP+-cells/confluence ∙ 1000
[12]; 1 µM, 16,6 h
  Mean NFκB response: 33810.34 GFP+-cells/confluence ∙ 1000
[12]; 1 µM, 19,5 h
  Mean NFκB response: 37834.35 GFP+-cells/confluence ∙ 1000
[12]; 1 µM, 22,5 h
  Mean NFκB response: 40864.97 GFP+-cells/confluence ∙ 1000
[12]; 1 µM, 3 h
  Mean NFκB response: 3459.65 GFP+-cells/confluence ∙ 1000
[12]; 1 µM, 6 h
  Mean NFκB response: 5471.05 GFP+-cells/confluence ∙ 1000
[12]; 1 µM, 9 h
  Mean NFκB response: 14572.22 GFP+-cells/confluence ∙ 1000
[12]; 1 µM, 12 h
  Mean NFκB response: 23454.30 GFP+-cells/confluence ∙ 1000
[12]; 1 µM, 15 h
  Mean NFκB response: 30888.37 GFP+-cells/confluence ∙ 1000
[12]; 1 µM, 18 h
  Mean NFκB response: 35947.21 GFP+-cells/confluence ∙ 1000
[12]; 1 µM, 21 h
  Mean NFκB response: 39332.93 GFP+-cells/confluence ∙ 1000
[12]; 1 µM, 24 h
  Mean NFκB response: 42047.68 GFP+-cells/confluence ∙ 1000
[12]
  NF-κB activity (inflammatory response to ionomycin/PMA): no impact on NF-κB activity
[13]
  ATF6 activity (tunicamycin-induced endoplasmic reticulum stress): mediated resolution of the tunicamycin-induced endoplasmic reticulum stress
  activity at 1 µM: 66%
[14]; (lit.), ref Supplementary Table 1, read-out: Potency [nM] IC50, NR3A2 (ERβ)
  IC50: ~4 nM
[14]; relative binding affinity to estradiol
  rel. activity from literature, NR3A2 (ERβ): RBA to estradiol: 25 ± 6 RBA
[15]
  Metabolic activity [MA]: 1.06 and 1.04 (2×) and 0.92 and 1.05 (2×) and 0.98 and 0.82
[16]
  Growth rate [GR]: 1.15 and 0.31 and 1.59 and 1.75 and 1.08 and 0.52 and 0.68 and 0.76 and 0.64 and 0.98
[17]
  Apoptosis induction [AI]: -0.98 and -0.31 and -0.46 and 0.85 and 0.74 and 1.53

## COc1ccc2c(c1)OC(C)(C)C(c1ccccc1)C2c1ccc(OCCN2CCCC2)cc1 (centres unmarked) [Ormeloxifene]
[1]
  Necrosis induction [NI]: 1.44 and 1.00 and 0.84 and 1.46
[18]
  VP16 control [fold reporter gene activity]: 1.02 fold reporter gene activity and 1.04 fold reporter gene activity and 1.38 fold reporter gene activity
[2]; DSF, 20 µM, n=2
  ΔTm at 20 µM: -0.02 °C
[3]; DSF, 20 µM, n=2
  ΔTm at 20 µM: 0.51 °C
[4]; DSF, 20 µM, n=2
  ΔTm at 20 µM: -2.04 °C
[5]; DSF, 20 µM, n=2
  ΔTm at 20 µM: 0.15 °C
[6]; DSF, 20 µM, n=2
  ΔTm at 20 µM: 0 °C
[7]; DSF, 20 µM, n=2
  ΔTm at 20 µM: -3.83 °C
[8]; DSF, 20 µM, n=2
  ΔTm at 20 µM: -2.59 °C
[9]; DSF, 20 µM, n=2
  ΔTm at 20 µM: -0.1 °C
[10]; DSF, 20 µM, n=2
  ΔTm at 20 µM: -2.68 °C
[11]; DSF, 20 µM, n=2
  ΔTm at 20 µM: -3.44 °C
[12]; 1 µM, 1,5 h
  Mean NFκB response: 3755.51 GFP+-cells/confluence ∙ 1000
[12]; 1 µM, 4,5 h
  Mean NFκB response: 4450.99 GFP+-cells/confluence ∙ 1000
[12]; 1 µM, 7,5 h
  Mean NFκB response: 10042.81 GFP+-cells/confluence ∙ 1000
[12]; 1 µM, 10,5 h
  Mean NFκB response: 20884.44 GFP+-cells/confluence ∙ 1000
[12]; 1 µM, 13,5 h
  Mean NFκB response: 30159.52 GFP+-cells/confluence ∙ 1000
[12]; 1 µM, 16,6 h
  Mean NFκB response: 36246.87 GFP+-cells/confluence ∙ 1000
[12]; 1 µM, 19,5 h
  Mean NFκB response: 41125.44 GFP+-cells/confluence ∙ 1000
[12]; 1 µM, 22,5 h
  Mean NFκB response: 44312.79 GFP+-cells/confluence ∙ 1000
[12]; 1 µM, 3 h
  Mean NFκB response: 3914.66 GFP+-cells/confluence ∙ 1000
[12]; 1 µM, 6 h
  Mean NFκB response: 5719.43 GFP+-cells/confluence ∙ 1000
[12]; 1 µM, 9 h
  Mean NFκB response: 15929.12 GFP+-cells/confluence ∙ 1000
[12]; 1 µM, 12 h
  Mean NFκB response: 25867.46 GFP+-cells/confluence ∙ 1000
[12]; 1 µM, 15 h
  Mean NFκB response: 33826.67 GFP+-cells/confluence ∙ 1000
[12]; 1 µM, 18 h
  Mean NFκB response: 39021.43 GFP+-cells/confluence ∙ 1000
[12]; 1 µM, 21 h
  Mean NFκB response: 42782.99 GFP+-cells/confluence ∙ 1000
[12]; 1 µM, 24 h
  Mean NFκB response: 45591.11 GFP+-cells/confluence ∙ 1000
[12]
  NF-κB activity (inflammatory response to ionomycin/PMA): no impact on NF-κB activity
[13]
  ATF6 activity (tunicamycin-induced endoplasmic reticulum stress): mediated resolution of the tunicamycin-induced endoplasmic reticulum stress
  activity at 1 µM: 39%
[19]; (lit.), ref Supplementary Table 1, read-out: Potency [nM] EC50, NR3A1 (ERα)
  EC50: 13 ± 0.4 nM
[19]; of moxestrol
  rel. activity from literature, NR3A1 (ERα): % of moxestrol: 25 ± 2%
[15]
  Metabolic activity [MA]: 1.06 and 1.01 and 0.96 and 1.00 and 1.02 and 0.99 and 1.05 (2×)
[16]
  Growth rate [GR]: 0.58 and 1.95 and 0.92 and 1.05 and 0.91 and 0.78 and 1.00 and 2.25 and 0.88 and 10.36
[17]
  Apoptosis induction [AI]: 0.93 and 1.23 and 0.90 and 1.47 and 0.53 and 0.80

— article PMC11790914, “Chemogenomics for steroid hormone receptors (NR3)” (Communications Chemistry, 2025)
